Measured values published in PubChem BioAssay AID248 (DTP/NCI, 2004).
Where “and” joins values, the source holds several entries; their conditions need not be identical. Equal values may be shown once. Inconclusive results and toxic doses are left out. No stated cut-off is given here; in the data, active means T/C of 150% or more; inactive means T/C below 125%.

Test system: L1210 leukemia ip in BDF1 mice, survival T/C
Test: NCI In Vivo Anticancer Drug Screen. Data for tumor model L1210 Leukemia (intraperitoneal) in B6D2F1 (BDF1) mice
Details: endpoint: mean survival time, higher = longer survival
In short: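 Antitumor effect is assessed in tumor-bearing animals. Survival in the compound arm is compared with a vehicle-dosed control arm and expressed as their quotient.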

[1] = dose: 100.0 mg/kg/injection, schedule: Q04DX003 (ip), vehicle: saline with Tween-80
[2] = dose: 200.0 mg/kg/injection, schedule: Q04DX003 (ip), vehicle: saline with Tween-80
[3] = dose: 400.0 mg/kg/injection, schedule: Q04DX003 (ip), vehicle: saline with Tween-80
[4] = dose: 100.0 mg/kg/injection, schedule: Q01DX009 (ip), vehicle: saline with Tween-80
[5] = dose: 200.0 mg/kg/injection, schedule: Q01DX009 (ip), vehicle: saline with Tween-80
[6] = dose: 400.0 mg/kg/injection, schedule: Q01DX009 (ip), vehicle: saline with Tween-80
[7] = dose: 25.0 mg/kg/injection, schedule: Q04DX002 (ip), vehicle: saline
[8] = dose: 50.0 mg/kg/injection, schedule: Q04DX002 (ip), vehicle: saline
[9] = dose: 100.0 mg/kg/injection, schedule: Q04DX002 (ip), vehicle: saline
[10] = dose: 400.0 mg/kg/injection, schedule: Q04DX002 (ip), vehicle: saline
[11] = dose: 100.0 mg/kg/injection, schedule: Q01DX009 (ip), vehicle: saline
[12] = dose: 100.0 mg/kg/injection, schedule: Q04DX003 (ip), vehicle: saline
[13] = dose: 200.0 mg/kg/injection, schedule: Q01DX009 (ip), vehicle: saline
[14] = dose: 200.0 mg/kg/injection, schedule: Q04DX003 (ip), vehicle: saline
[15] = dose: 400.0 mg/kg/injection, schedule: Q01DX009 (ip), vehicle: saline
[16] = dose: 400.0 mg/kg/injection, schedule: Q04DX003 (ip), vehicle: saline
[17] = dose: 100.0 mg/kg/injection, schedule: Q01DX001 (ip), vehicle: saline
[18] = dose: 200.0 mg/kg/injection, schedule: Q01DX001 (ip), vehicle: saline
[19] = dose: 400.0 mg/kg/injection, schedule: Q01DX001 (ip), vehicle: saline
[20] = dose: 100.0 mg/kg/injection, schedule: Q04DX003 (ip), vehicle: Klucel (hydroxypropylcellulose) (HPC)
[21] = dose: 50.0 mg/kg/injection, schedule: Q01DX009 (ip), vehicle: saline

Measured: T/C

Clc1ccc(OCCOc2ccc(Cl)cc2)cc1
inactive: [1] 95 % of control | [2] 92 % of control | [3] 106 % of control

C=CC[N+](CC=C)(CC=C)C/C=C/C[N+](CC=C)(CC=C)CC=C
inactive: dose: 6.25 mg/kg/injection, schedule: Q01DX009 (ip), vehicle: water 95 % of control | dose: 12.5 mg/kg/injection, schedule: Q01DX009 (ip), vehicle: water 94 % of control and 91 % of control | dose: 25.0 mg/kg/injection, schedule: Q01DX009 (ip), vehicle: water 93 % of control and 101 % of control | dose: 50.0 mg/kg/injection, schedule: Q01DX009 (ip), vehicle: water 104 % of control

C=CCNC(=O)c1ccccc1O
inactive: dose: 100.0 mg/kg/injection, schedule: Q01DX009 (sc), vehicle: olive oil, sesame oil, peanut oil 101 % of control | dose: 100.0 mg/kg/injection, schedule: Q04DX003 (sc), vehicle: olive oil, sesame oil, peanut oil 91 % of control | dose: 200.0 mg/kg/injection, schedule: Q01DX009 (sc), vehicle: olive oil, sesame oil, peanut oil 101 % of control | dose: 200.0 mg/kg/injection, schedule: Q04DX003 (sc), vehicle: olive oil, sesame oil, peanut oil 100 % of control | dose: 400.0 mg/kg/injection, schedule: Q01DX009 (sc), vehicle: olive oil, sesame oil, peanut oil 94 % of control | dose: 400.0 mg/kg/injection, schedule: Q04DX003 (sc), vehicle: olive oil, sesame oil, peanut oil 91 % of control

O=C(Nc1cccc(Cl)c1)Nc1ccccc1Cl
inactive: [4] 100 % of control | [5] 97 % of control | [6] 96 % of control

C=CS(=O)(=O)c1ccc([N+](=O)[O-])cc1
inactive: dose: 6.25 mg/kg/injection, schedule: Q04DX002 (ip), vehicle: saline with Tween-80 92 % of control | dose: 12.5 mg/kg/injection, schedule: Q04DX002 (ip), vehicle: saline with Tween-80 101 % of control | dose: 25.0 mg/kg/injection, schedule: Q04DX002 (ip), vehicle: saline with Tween-80 94 % of control

CCCCC(=O)N1C(C)CCCC1C (stereo not drawn)
inactive: [7] 88 % of control | [8] 91 % of control | [9] 94 % of control | [10] 96 % of control

NC(=O)CC[n+]1cccc(C(=O)O)c1
inactive: [11] 93 % of control | [12] 94 % of control | [13] 88 % of control | [14] 93 % of control | [15] 92 % of control | [16] 94 % of control

[Mg+2]
inactive: [17] 96 % of control | [11] 95 % of control | [12] 93 % of control | [18] 91 % of control | [13] 95 % of control | [14] 89 % of control | [19] 96 % of control | [15] 97 % of control | [16] 88 % of control

CNC(=O)C(C)(C)C
inactive: dose: 100.0 mg/kg/injection, schedule: Q01DX001 (ip), vehicle: saline with Tween-80 100 % of control | dose: 200.0 mg/kg/injection, schedule: Q01DX001 (ip), vehicle: saline with Tween-80 103 % of control | dose: 400.0 mg/kg/injection, schedule: Q01DX001 (ip), vehicle: saline with Tween-80 100 % of control

O=C(Nc1ccc(F)cc1)Nc1cc(C(F)(F)F)ccc1Cl
inactive: dose: 50.0 mg/kg/injection, schedule: Q01DX009 (ip), vehicle: Klucel (hydroxypropylcellulose) (HPC) 107 % of control | dose: 100.0 mg/kg/injection, schedule: Q01DX009 (ip), vehicle: Klucel (hydroxypropylcellulose) (HPC) 92 % of control | dose: 200.0 mg/kg/injection, schedule: Q01DX009 (ip), vehicle: Klucel (hydroxypropylcellulose) (HPC) 92 % of control

CCCCCCCCCCCCCCCCN(C)C(=S)c1ccc(Cl)c(Cl)c1
inactive: dose: 100.0 mg/kg/injection, schedule: Q01DX001 (ip), vehicle: Klucel (hydroxypropylcellulose) (HPC) 100 % of control | [20] 100 % of control | dose: 200.0 mg/kg/injection, schedule: Q01DX001 (ip), vehicle: Klucel (hydroxypropylcellulose) (HPC) 100 % of control | dose: 200.0 mg/kg/injection, schedule: Q04DX003 (ip), vehicle: Klucel (hydroxypropylcellulose) (HPC) 96 % of control | dose: 400.0 mg/kg/injection, schedule: Q01DX001 (ip), vehicle: Klucel (hydroxypropylcellulose) (HPC) 98 % of control | dose: 400.0 mg/kg/injection, schedule: Q04DX003 (ip), vehicle: Klucel (hydroxypropylcellulose) (HPC) 91 % of control

Oc1ccc2ccccc2c1Cc1ccccc1
inactive: [4] 99 % of control | [5] 89 % of control | [6] 92 % of control

NC1CCC(CC23CC4CC(CC(C4)C2)C3)CC1 (stereo not drawn)
inactive: dose: 25.0 mg/kg/injection, schedule: Q04DX003 (ip), vehicle: Klucel (hydroxypropylcellulose) (HPC) 110 % of control | dose: 50.0 mg/kg/injection, schedule: Q04DX003 (ip), vehicle: Klucel (hydroxypropylcellulose) (HPC) 102 % of control | [20] 94 % of control and 101 % of control

Cc1ccc(Cl)cc1NC(=O)N(C)Cc1ccccc1
inactive: [4] 95 % of control and 104 % of control | dose: 100.0 mg/kg/injection, schedule: Q04DX002 (ip), vehicle: saline with Tween-80 94 % of control and 120 % of control | [1] 100 % of control | [5] 97 % of control and 104 % of control | dose: 200.0 mg/kg/injection, schedule: Q04DX002 (ip), vehicle: saline with Tween-80 98 % of control and 105 % of control | [2] 105 % of control | [6] 97 % of control and 108 % of control | dose: 400.0 mg/kg/injection, schedule: Q04DX002 (ip), vehicle: saline with Tween-80 98 % of control and 86 % of control | [3] 108 % of control

CC1(C)OCC(=NNC(N)=O)CO1
inactive: [21] 96 % of control | [11] 93 % of control | [12] 90 % of control | [14] 90 % of control

O=C1C2CCC(C2)C1Cl (stereo not drawn)
inactive: dose: 62.5 mg/kg/injection, schedule: Q04DX003 (ip), vehicle: saline with Tween-80 95 % of control | [1] 95 % of control | dose: 125.0 mg/kg/injection, schedule: Q04DX003 (ip), vehicle: saline with Tween-80 103 % of control | [2] 97 % of control | dose: 250.0 mg/kg/injection, schedule: Q04DX003 (ip), vehicle: saline with Tween-80 104 % of control | [3] 100 % of control

NC(=S)NNC(=O)c1ccncc1
inactive: [17] 96 % of control | [18] 96 % of control | [19] 91 % of control

OCC1OC(n2cnc3c2nnn2ccnc32)C(O)C1O (stereo not drawn)
inactive: dose: 12.5 mg/kg/injection, schedule: Q01DX009 (ip), vehicle: saline 98 % of control | dose: 12.5 mg/kg/injection, schedule: Q04DX002 (ip), vehicle: saline 108 % of control | dose: 25.0 mg/kg/injection, schedule: Q01DX009 (ip), vehicle: saline 101 % of control | [7] 108 % of control | [21] 98 % of control and 107 % of control and 123 % of control | [8] 104 % of control | dose: 75.0 mg/kg/injection, schedule: Q01DX009 (ip), vehicle: saline 100 % of control | dose: 100.0 mg/kg/injection, schedule: Q01DX005 (ip), vehicle: saline 114 % of control | [11] 115 % of control | dose: 115.0 mg/kg/injection, schedule: Q01DX009 (ip), vehicle: saline 104 % of control | dose: 170.0 mg/kg/injection, schedule: Q01DX009 (ip), vehicle: saline 112 % of control | dose: 200.0 mg/kg/injection, schedule: Q01DX005 (ip), vehicle: saline 107 % of control | [13] 120 % of control

CCCCCCCCOC(=O)c1ccc2c(c1)Nc1cc3ccccc3cc1N2
inactive: dose: 100.0 mg/kg/injection, schedule: Q04DX002 (ip), vehicle: Klucel (hydroxypropylcellulose) (HPC) 105 % of control | dose: 200.0 mg/kg/injection, schedule: Q04DX002 (ip), vehicle: Klucel (hydroxypropylcellulose) (HPC) 101 % of control | dose: 400.0 mg/kg/injection, schedule: Q04DX002 (ip), vehicle: Klucel (hydroxypropylcellulose) (HPC) 92 % of control

O=P(O)(O)OCC1OC(O)(COP(=O)(O)O)C(O)C1O (stereo not drawn)
inactive: [9] 100 % of control | dose: 200.0 mg/kg/injection, schedule: Q04DX002 (ip), vehicle: saline 106 % of control | [10] 95 % of control

c1ccc(Cn2ccc3ccncc32)cc1
inactive: dose: 75.0 mg/kg/injection, schedule: Q01DX001 (ip), vehicle: other 96 % of control
